Measured values: patent US20070043109A1, “Slimming cosmetic composition” (Sederma Sas, priority 2003, published 2007)

Key:
[1] = test system: VLDL receptor; test: RT-PCR quantification of VLDL receptor mRNA expression in 3T3-L1 neo-adipocytes; type: cell-based
Source text: (§1) To evidence regulation of transcription (control of the number of copies of the messenger RNA for the gene coding for the protein studied), it was necessary to isolate the messenger RNA (mRNA) synthesized from the cell culture. The mRNA specific for the protein of interest must be recognized in the total mRNA pool present in the cell.
(§2) The used method is RT-PCR, of amplification and quantization, conducted in real time on the latest-generation systems and which enables in-line quantitative measurement of the target mRNA.
(§3) Neo-adipocytes 3T3-L1 in the adipocytic differentiation phase (after addition of an appropriate triggering cocktail) were incubated with cafestol acetate for 24 hours.
(§4) At the end of the test, the adipocytes were lysed and the extracted mRNA transcribed to cDNA (by reverse transcriptase). The cDNA were then amplified (n copies using Taq polymerase) to obtain a detectable signal.
(§5) The amplicons (cDNA amplification products) were quantified directly, as they emerged in the RT-PCR system, then subjected to electrophoresis in order to visually illustrate the results.

[2] = test system: LDL receptor; test: RT-PCR quantification of LDL receptor mRNA expression in 3T3-L1 neo-adipocytes; type: cell-based; settings: 24 hours
Source text: as §1, §2, §3, §4, §5

SMILES: CC(=O)OC[C@@]1(O)C[C@@]23CC[C@@H]4c5ccoc5CC[C@@]4(C)[C@@H]2CC[C@@H]1C3 [Cafestol Acetate, cafestol acetate]
- mRNA expression VLDL receptor, standardized on internal standard β-actin, percentage relative to the control ([1]; cafestol acetate 15 ppm, 24 hours, 3T3-L1 neo-adipocytes in differentiation phase, mean of n = 3 tests, control = 100): 90%
- Reduction of the VLDLr (mRNA expression) ([1]; in 24 hours): 10%
- Change in LDL receptor mRNA expression relative to control ([2]; equivalent to that of the positive control): −33%
- mRNA expression LDL receptor, standardized on internal standard β-actin, percentage relative to the control ([2]; cafestol acetate 15 ppm, 3T3-L1 neo-adipocytes in differentiation phase, mean of n = 3 tests, control = 100): 66%
